Experimental data as given in paper PMC9154192 (PLoS Biology, 2022).
Converted amounts (≈) assume the structure as drawn.

How the values were obtained:
M. abscessus = experiment: microbe, parasite or virus in culture; assay type: cell-based, Mycobacterium abscessus; settings: Mycobacteroides abscessus
M. conceptionense = experiment: microbe, parasite or virus in culture; assay type: cell-based, Mycobacterium conceptionense; settings: Mycolicibacterium senegalense
M. bovis = experiment: microbe, parasite or virus in culture; assay type: cell-based; settings: Mycobacterium tuberculosis variant bovis
M. massiliense = experiment: microbe, parasite or virus in culture; assay type: cell-based, Mycobacterium massiliense; settings: Mycobacteroides abscessus
M. szulgai = experiment: microbe, parasite or virus in culture; assay type: cell-based; settings: Mycobacterium szulgai
M. phocaicum = experiment: microbe, parasite or virus in culture; assay type: cell-based, Mycobacterium phocaicum; settings: Mycolicibacterium phocaicum
M. chitae = experiment: microbe, parasite or virus in culture; assay type: cell-based, Mycobacterium chitae; settings: Mycolicibacterium chitae
M. peregrinum = experiment: microbe, parasite or virus in culture; assay type: cell-based, Mycobacterium peregrinum; settings: Mycolicibacterium peregrinum
M. xenopi = experiment: microbe, parasite or virus in culture; assay type: cell-based; settings: Mycobacterium xenopi
M. arupense = experiment: microbe, parasite or virus in culture; assay type: cell-based, Mycobacterium arupense; settings: Mycolicibacter arupensis
M. aubagnense = experiment: microbe, parasite or virus in culture; assay type: cell-based, Mycobacterium aubagnense; settings: Mycolicibacterium aubagnense
M. intracellulare = experiment: microbe, parasite or virus in culture; assay type: cell-based; settings: Mycobacterium intracellulare
M. kansasii = experiment: microbe, parasite or virus in culture; assay type: cell-based; settings: Mycobacterium kansasii
Rhizopus oryzae = experiment: Broth dilution MIC (CLSI); assay type: cell-based; settings: Rhizopus arrhizus; Rhizopus oryzae; read-out: MIC
Excerpt: (§1) Bacteria (Acinetobacter baumannii NCCP 14782, Citrobacter freundii NCCP 14766, Enterobacter aerogenes NCCP 14761, Escherichia coli NCCP 14762, Escherichia coli O157 NCCP 14541, Klebsiella pneumoniae NCCP 14764, Proteus mirabilis NCCP 14763, Proteus vulgaris NCCP 14765, Pseudomonas aeruginosa NCCP 14781, Salmonella Enteritidis NCCP 14771, Salmonella Paratyphi A NCCP 14759, Salmonella Typhimurium NCCP 16207, Serratia marcescens NCCP 14770, Shigella boydii NCCP 14745, Shigella dysenteriae NCCP 14746, Shigella flexneri NCCP 14744, Shigella sonnei NCCP 14773, Bacillus subtilis NCCP 11101, Corynebacterium diphtheriae NCCP 10353, Staphylococcus aureus MSSA NCCP 14780, Staphylococcus aureus MRSA NCCP 14769, Staphylococcus epidermidis NCCP 14768, Streptococcus pneumoniae NCCP 14774) and fungi (Aspergillus fumigatus NCCP 22454, Candida albicans NCCP 32557, Cryptococcus neoformans NCCP 32559, Microsporum canis NCCP 22454, Rhizopus oryzae NCCP 22458, Saccharomyces cerevisiae NCCP 32558, Trichophyton rubrum NCCP 22456) strains were obtained from the National Culture Collection for Pathogens (NCCP) (Chungbuk, Korea). The MIC of each agent was determined following the Clinical and Laboratory Standards Institute (CLSI).[40]

Salmonella Enteritidis = experiment: Broth dilution MIC (CLSI); assay type: cell-based; settings: Salmonella enterica; Salmonella Enteritidis; read-out: MIC
Excerpt: as §1

[1] = tested on: Staphylococcus aureus, MRSA; experiment: Broth dilution MIC (CLSI); assay type: cell-based; settings: read-out: MIC
Excerpt: as §1

[2] = tested on: Staphylococcus aureus, MSSA; experiment: Broth dilution MIC (CLSI); assay type: cell-based; settings: read-out: MIC
Excerpt: as §1

[3] = tested on: Corynebacterium diphtheriae; experiment: Broth dilution MIC (CLSI); assay type: cell-based; settings: read-out: MIC
Excerpt: as §1

Cryptococcus neoformans = experiment: Broth dilution MIC (CLSI); assay type: cell-based; settings: read-out: MIC
Excerpt: as §1

Shigella sonnei = experiment: Broth dilution MIC (CLSI); assay type: cell-based; settings: read-out: MIC
Excerpt: as §1

Salmonella Paratyphi A = experiment: Broth dilution MIC (CLSI); assay type: cell-based; settings: Salmonella enterica; Salmonella Paratyphi A; read-out: MIC
Excerpt: as §1

Proteus vulgaris = experiment: Broth dilution MIC (CLSI); assay type: cell-based; settings: read-out: MIC
Excerpt: as §1

Enterobacter aerogenes = experiment: Broth dilution MIC (CLSI); assay type: cell-based; settings: Klebsiella aerogenes; Enterobacter aerogenes; read-out: MIC
Excerpt: as §1

Shigella boydii = experiment: Broth dilution MIC (CLSI); assay type: cell-based; settings: read-out: MIC
Excerpt: as §1

Citrobacter freundii = experiment: Broth dilution MIC (CLSI); assay type: cell-based; settings: read-out: MIC
Excerpt: as §1

Pseudomonas aeruginosa = experiment: Broth dilution MIC (CLSI); assay type: cell-based; settings: read-out: MIC
Excerpt: as §1

Microsporum canis = experiment: Broth dilution MIC (CLSI); assay type: cell-based; settings: read-out: MIC
Excerpt: as §1

Salmonella Typhimurium = experiment: Broth dilution MIC (CLSI); assay type: cell-based; settings: Salmonella enterica; Salmonella Typhimurium; read-out: MIC
Excerpt: as §1

M. smegmatis = experiment: microbe, parasite or virus in culture; assay type: cell-based, Mycobacterium smegmatis; settings: Mycolicibacterium smegmatis
M. goodie = experiment: microbe, parasite or virus in culture; assay type: cell-based; settings: Mycobacterium
M. phlei = experiment: microbe, parasite or virus in culture; assay type: cell-based, Mycobacterium phlei; settings: Mycolicibacterium phlei
M. kyorinense = experiment: microbe, parasite or virus in culture; assay type: cell-based; settings: Mycobacterium kyorinense
M. gordonae = experiment: microbe, parasite or virus in culture; assay type: cell-based; settings: Mycobacterium gordonae
M. fortuitum = experiment: microbe, parasite or virus in culture; assay type: cell-based, Mycobacterium fortuitum; settings: Mycolicibacterium fortuitum
M. marinum = experiment: microbe, parasite or virus in culture; assay type: cell-based; settings: Mycobacterium marinum
M. bolletii = experiment: microbe, parasite or virus in culture; assay type: cell-based, Mycobacterium bolletii; settings: Mycobacteroides abscessus
M. neoaurum = experiment: microbe, parasite or virus in culture; assay type: cell-based, Mycobacterium neoaurum; settings: Mycolicibacterium neoaurum
M. gilvum = experiment: microbe, parasite or virus in culture; assay type: cell-based, Mycobacterium gilvum; settings: Mycolicibacterium gilvum
[4] = tested on: clinically isolated MDR, XDR, and TDR M. tuberculosis strains; experiment: microbe, parasite or virus in culture; assay type: cell-based; settings: Mycobacterium tuberculosis
M. marseiliense = experiment: microbe, parasite or virus in culture; assay type: cell-based; settings: Mycobacterium
M. heraklionease = experiment: microbe, parasite or virus in culture; assay type: cell-based; settings: Mycobacterium

CCCCOc1ccc2cc(CN3C(=O)CC[C@H]3C(=O)OC)c3cc(OC)c(OC)cc3c2c1 [PP2S, Methyl (S)-1-((3-butoxy-6,7-dimethoxyphenanthren-9-yl)methyl)-5-oxopyrrolidine-2-carboxylate]
MIC (M. abscessus): > 100 µg/mL | MIC (M. conceptionense): > 100 µg/mL | MIC (M. bovis): 0.8 µg/mL (≈ 1.72 µM) | MIC (M. massiliense): > 100 µg/mL | MIC (M. szulgai): > 100 µg/mL | MIC (M. phocaicum): > 100 µg/mL | MIC (M. chitae): > 100 µg/mL | MIC (M. peregrinum): > 100 µg/mL | MIC (M. xenopi): > 100 µg/mL | MIC (M. arupense): > 100 µg/mL | MIC (M. aubagnense): > 100 µg/mL | MIC (M. intracellulare): > 100 µg/mL | MIC (M. kansasii): > 100 µg/mL | MIC (Rhizopus oryzae): > 100 µg/mL | MIC (Salmonella Enteritidis): > 100 µg/mL | MIC [1]: > 100 µg/mL | MIC [2]: > 100 µg/mL | MIC [3]: > 100 µg/mL | MIC (Cryptococcus neoformans): > 100 µg/mL | MIC (Shigella sonnei): > 100 µg/mL | MIC (Salmonella Paratyphi A): > 100 µg/mL | MIC (Proteus vulgaris): > 100 µg/mL | MIC (Enterobacter aerogenes): > 100 µg/mL | MIC (Shigella boydii): > 100 µg/mL | MIC (Citrobacter freundii): > 100 µg/mL | MIC (Pseudomonas aeruginosa): > 100 µg/mL | MIC (Microsporum canis): > 100 µg/mL | MIC (Salmonella Typhimurium): > 100 µg/mL | MIC (M. smegmatis): > 100 µg/mL | MIC (M. goodie): > 100 µg/mL | MIC (M. phlei): > 100 µg/mL | MIC (M. kyorinense): > 100 µg/mL | MIC (M. gordonae): > 100 µg/mL | MIC (M. fortuitum): > 100 µg/mL | MIC (M. marinum): > 100 µg/mL | MIC (M. bolletii): > 100 µg/mL | MIC (M. neoaurum): > 100 µg/mL | MIC (M. gilvum): > 100 µg/mL | MIC ([4]; TDR-1): 1.6 µg/mL (≈ 3.44 µM) | MIC ([4]; TDR-2): 0.2 µg/mL (≈ 0.43 µM) | MIC ([4]; TDR-3): 1.6 µg/mL (≈ 3.44 µM) | MIC (M. marseiliense): > 100 µg/mL | MIC (M. heraklionease): > 100 µg/mL

COC(=O)[C@@H]1CCC(=O)N1Cc1cc2ccc(OC)cc2c2cc(OC)c(OC)cc12 [PP1S, (S)-N-[(2,3,6-Trimethoxy-10-phenanthryl)methyl]-pyroglutamic acid methyl ester]
MIC (M. abscessus): > 100 µg/mL | MIC (M. conceptionense): > 100 µg/mL | MIC (M. bovis): 1.6 µg/mL (≈ 3.78 µM) | MIC (M. massiliense): > 100 µg/mL | MIC (M. szulgai): > 100 µg/mL | MIC (M. phocaicum): > 100 µg/mL | MIC (M. chitae): > 100 µg/mL | MIC (M. peregrinum): > 100 µg/mL | MIC (M. xenopi): > 100 µg/mL | MIC (M. arupense): > 100 µg/mL | MIC (M. aubagnense): > 100 µg/mL | MIC (M. intracellulare): > 100 µg/mL | MIC (M. kansasii): > 100 µg/mL | MIC (Rhizopus oryzae): > 100 µg/mL | MIC (Salmonella Enteritidis): > 100 µg/mL | MIC [1]: > 100 µg/mL | MIC [2]: > 100 µg/mL | MIC [3]: > 100 µg/mL | MIC (Cryptococcus neoformans): > 100 µg/mL | MIC (Shigella sonnei): > 100 µg/mL | MIC (Salmonella Paratyphi A): > 100 µg/mL | MIC (Proteus vulgaris): > 100 µg/mL | MIC (Enterobacter aerogenes): > 100 µg/mL | MIC (Shigella boydii): > 100 µg/mL | MIC (Citrobacter freundii): > 100 µg/mL | MIC (Pseudomonas aeruginosa): > 100 µg/mL | MIC (Microsporum canis): > 100 µg/mL | MIC (Salmonella Typhimurium): > 100 µg/mL | MIC (M. smegmatis): > 100 µg/mL | MIC (M. goodie): > 100 µg/mL | MIC (M. phlei): > 100 µg/mL | MIC (M. kyorinense): > 100 µg/mL | MIC (M. gordonae): > 100 µg/mL | MIC (M. fortuitum): > 100 µg/mL | MIC (M. marinum): > 100 µg/mL | MIC (M. bolletii): > 100 µg/mL | MIC (M. neoaurum): > 100 µg/mL | MIC (M. gilvum): > 100 µg/mL | MIC ([4]; TDR-1): 3.3 µg/mL (≈ 7.79 µM) | MIC ([4]; TDR-2): 0.8 µg/mL (≈ 1.89 µM) | MIC ([4]; TDR-3): 3.1 µg/mL (≈ 7.32 µM) | MIC (M. marseiliense): > 100 µg/mL | MIC (M. heraklionease): > 100 µg/mL
